Experimental data from patent US20080234263A1, “Quinazoline Derivatives” (priority 2003, published 2008).

How the values were obtained:
[1] = target: T1, EGFR tyrosine kinase (Homo sapiens, UniProt P00533); assay: Protein tyrosine kinase phosphorylation assay, Test (a); format: biochemical; details: recombinant intracellular fragment of EGFR, ATP at Km concentration; read-out: IC50 (nM) Test (a) (Inhibition of EGFR tyrosine kinase protein phosphorylation)
T1 construct: Recombinant intracellular fragments of EGFR, erbB2 and erbB4; made in house; host or cells: baculovirus/Sf21 insect cells (cleared lysate used)
T1 sequence (P00533 669-1210 limits assumed): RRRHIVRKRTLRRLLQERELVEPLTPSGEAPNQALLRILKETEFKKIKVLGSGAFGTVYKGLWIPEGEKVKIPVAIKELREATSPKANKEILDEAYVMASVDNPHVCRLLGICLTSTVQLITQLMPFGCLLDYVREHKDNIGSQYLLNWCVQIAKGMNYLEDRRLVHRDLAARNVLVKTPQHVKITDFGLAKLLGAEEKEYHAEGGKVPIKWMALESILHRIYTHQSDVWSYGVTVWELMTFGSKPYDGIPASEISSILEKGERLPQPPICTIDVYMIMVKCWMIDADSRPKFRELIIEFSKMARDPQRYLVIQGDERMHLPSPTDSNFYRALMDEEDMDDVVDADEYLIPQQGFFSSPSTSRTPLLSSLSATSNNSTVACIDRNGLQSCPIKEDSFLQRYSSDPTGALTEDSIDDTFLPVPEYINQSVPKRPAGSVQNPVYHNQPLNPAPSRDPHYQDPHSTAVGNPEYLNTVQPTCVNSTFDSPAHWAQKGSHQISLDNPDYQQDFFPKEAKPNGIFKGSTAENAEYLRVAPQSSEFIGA
Experimental: Recombinant intracellular fragments of EGFR, erbB2 and erbB4 (accession numbers X00588, X03363 and L07868 respectively) were cloned and expressed in the baculovirus/Sf21 system. Lysates were prepared from these cells by treatment with ice-cold lysis buffer (20 mM N-2-hydroxyethylpiperizine-N′-2-ethanesulfonic acid (HEPES) pH7.5, 150 mM NaCl, 10% glycerol, 1% Triton X-100, 1.5 mM MgCl2, 1 mM ethylene glycol-bis(β-aminoethyl ether) N′,N′,N′,N′-tetraacetic acid (EGTA), plus protease inhibitors and then cleared by centrifugation.
Specifically, Maxisorb™ 96-well immunoplates were coated with synthetic peptide (0.2 μg of peptide in a 100 μl phosphate buffered saline (PBS) solution and incubated at 4° C. overnight).
The immobilised phospho-peptide product of the reaction was detected by immunological methods. Firstly, plates were incubated for 90 minutes at room temperature with anti-phosphotyrosine primary antibodies that were raised in the mouse (4G10 from Upstate Biotechnology). Following extensive washing, plates were treated with Horseradish Peroxidase (HRP) conjugated sheep anti-mouse secondary antibody (NXA931 from Amersham) for 60 minutes at room temperature.
Kinase inhibition for a given compound was expressed as an IC50 value. […] The range of phosphorylation was calculated from the positive (vehicle plus ATP) and negative (vehicle minus ATP) control values.

[2] = tested on: KB cells (human naso-pharangeal carcinoma cells); assay: EGFR driven KB cell proliferation assay, Test (b); format: cell-based; details: 96 h, EGF 1 ng/ml, incubation for 4 days, MTT
Experimental: This assay measures the ability of a test compound to inhibit the proliferation of KB cells (human naso-pharangeal carcinoma obtained from the American Type Culture Collection (ATCC).
Following adhesion to the plate, the cells are treated with or without EGF (final concentration of 1 ng/ml) and with or without compound at a range of concentrations in dimethylsulfoxide (DMSO) (0.1% final) before incubation for 4 days. Following the incubation period, cell numbers were determined by addition of 50 μl of 3-(4,5-Dimethylthiazol-2-yl)-2,5-diphenyltetrazolium bromide ([…]) (stock 5 mg/ml) for 2 hours. MTT solution was then tipped off, the plate gently tapped dry and the cells dissolved upon the addition of 100 μl of DMSO.
Absorbance of the solubilised cells was read at 540 nm using a Molecular Devices ThermoMax microplate reader. Inhibition of proliferation was expressed as an IC50 value. […] The range of proliferation was calculated from the positive (vehicle plus EGF) and negative (vehicle minus EGF) control values.

IC50 [1] [nM]	IC50 [2] [nM]	SMILES
64	143	COc1cc2ncnc(Nc3ccc(F)c(Cl)c3)c2cc1CN1CCC[C@@H]1C(=O)NCC#N [Example 20, 1-({4-[(3-Chloro-4-fluorophenyl)amino]-7-methoxyquinazolin-6-yl}methyl)-N-(cyanomethyl)-D-prolinamide]
20	50	COc1cc2ncnc(Nc3cccc(Cl)c3F)c2cc1CN1CSC[C@H]1C(N)=O [Example 24, (4R)-3-({4-[(3-Chloro-2-fluorophenyl)amino]-7-methoxyquinazolin-6-yl}methyl)-1,3-thiazolidine-4-carboxamide]
67	160	COCCN1CCN(Cc2cc3c(Nc4cccc(Cl)c4F)ncnc3cc2OC)C(C(N)=O)C1 (stereo not drawn) [Example 37, 1-({4-[(3-Chloro-2-fluorophenyl)amino]-7-methoxyquinazolin-6-yl}methyl)-4-(2-methoxyethyl)piperazine-2-carboxamide]
